According to ChEMBL document CHEMBL1149925, “Application of hygromycin a structure activity relationships to the antibiotic A201A” (1993):
Values after ≈ are worked out from the molar mass of the structure shown.

Experiments:
[1] = tested on: Brachyspira hyodysenteriae; test: Tested for antibacterial activity expressed as minimum inhibitory concentration against Serpulina (Treponema) hyodysenteriae; format: functional
Pasteurella multocida = test: Tested for antibacterial activity expressed as minimum inhibitory concentration against Pasteurella multocida; format: functional

Row | Compound | MIC [1] | MIC (Pasteurella multocida)
1 | COc1ccc(/C=C(\C)C(=O)N[C@@H]2[C@H](O)[C@@H](O)[C@H]3OCO[C@H]3[C@@H]2O)cc1 | > 200 µg/mL | > 200 µg/mL
2 | COc1ccc(/C=C(\C)C(=O)N[C@H]2C(O)[C@H](n3cnc4c(N(C)C)ncnc43)O[C@@H]2CO)cc1 (some centres not stated) | 50 µg/mL (≈ 107 µM) | 200 µg/mL (≈ 427 µM)
3 | C=CCOc1ccc(/C=C(\C)C(=O)N[C@H]2C(O)[C@H](n3cnc4c(N(C)C)ncnc43)O[C@@H]2CO)cc1 (some centres not stated) | 50 µg/mL (≈ 101 µM) | > 200 µg/mL
4 | C/C(=C\c1ccc(O[C@@H]2O[C@H]([C@H](C)O)[C@@H](O)[C@@H]2O)c(O)c1)C(=O)N[C@H]1C(O)[C@H](n2cnc3c(N(C)C)ncnc32)O[C@@H]1CO (some centres not stated) | 200 µg/mL (≈ 324 µM) | 200 µg/mL (≈ 324 µM)
5 | CC(=O)[C@H]1O[C@@H](Oc2ccc(/C=C(\C)C(=O)N[C@@H]3[C@H](O)[C@@H](O)[C@H]4OCO[C@H]4[C@@H]3O)cc2O)[C@@H](O)[C@@H]1O [HYGROMYCIN A] | 0.78 µg/mL (≈ 1.52 µM) | 0.78 µg/mL (≈ 1.52 µM)
6 | C=CCOc1ccc(/C=C(\C)C(=O)N[C@@H]2[C@H](O)[C@@H](O)[C@H]3OCO[C@H]3[C@@H]2O)cc1O | 0.78 µg/mL (≈ 1.91 µM) | 3.13 µg/mL (≈ 7.68 µM)
7 | C/C(=C\c1ccc(O[C@@H]2O[C@H]([C@H](C)O)[C@@H](O)[C@@H]2O)c(O)c1)C(=O)N[C@@H]1[C@H](O)[C@@H](O)[C@H]2OCO[C@H]2[C@@H]1O | 3.13 µg/mL (≈ 6.1 µM) | 6.25 µg/mL (≈ 12.2 µM)
8 | C=CCOc1ccc(/C=C(\C)C(=O)N[C@H]2C(O)[C@H](n3cnc4c(N(C)C)ncnc43)O[C@@H]2CO)cc1O (some centres not stated) | 1.56 µg/mL (≈ 3.06 µM) | 6.25 µg/mL (≈ 12.2 µM)
9 | C=CCOc1ccc(/C=C(\C)C(=O)N[C@H]2[C@@H](O)[C@H](OC)O[C@@H]2CO)cc1O | > 200 µg/mL | > 200 µg/mL
10 | CO/C(CO[C@H]1O[C@H](C)[C@@H](OC)[C@H](OC)[C@@H]1O)=C1\O[C@@H](Oc2ccc(/C=C(\C)C(=O)NC3C(O)[C@H](n4cnc5c(N(C)C)ncnc54)O[C@@H]3CO)cc2)[C@@H](O)[C@@H]1O (some centres not stated) | 3.13 µg/mL (≈ 3.9 µM) | 3.13 µg/mL (≈ 3.9 µM)
11 | C=CCOc1ccc(/C=C(\C)C(=O)N[C@@H]2[C@H](O)[C@@H](O)[C@H]3OCO[C@H]3[C@@H]2O)cc1 | 6.25 µg/mL (≈ 16 µM) | 50 µg/mL (≈ 128 µM)
